Data: patent publication US20260317304A1, “TEAD INHIBITORS AND METHODS OF USE” (Sporos BioDiscovery, Inc., priority 2022, published 2026)

System: NCI-H28 cells
Assay: Proliferation and cell viability assay, Cell Titer One
Assay type: cell-based
Conditions: Homo sapiens, NCI-H28, 144 h; Cell Titer One assay, non-responder, 6 days
Description: Cell proliferation of a TEAD dependent NF2-null mesothelioma cell line, NCI-H226 was assayed using two different protocols. Results were confirmed in two different TEAD-non-dependent lung cancer cell lines, H23 and H28, were used as non-responsive controls, as indicated:
b) Cell Titer One (Promega, #G3582). The effect of the TEAD inhibitors disclosed herein on cell proliferation was also determined using the Promega Substrate Cell Titer Aqueous One Solution Reagent. The TEAD inhibitors were evaluated for the effects on cell proliferation responder (H226) and non-responder negative control cancer cell lines (CAMA1, H28), as well as non-transformed normal human cells (HUVEC, NHDF). Dissociated cells were resuspend in media (depending on cell line, either in DMEM, RPMI, or EMEM all with 10% FBS, with gentamicin as an antibiotic). Cells were seeded at 100 μL/well at 750 cells per well in 96-well plates and allowed to settle and attach. After an incubation of 24 hrs (37° C., 5% CO2, humidified incubator), 100 μL of test compound-containing media was added. A dilution series of 2000× concentrated stock of test compounds was prepared in DMSO, for final concentrations from 0.1 to 10,000 nM. After addition of test compound-containing media, cells were incubated for 6 days at 37° C., 5% CO2, humidified incubators). […] The OD was measured using Vmax [Molecular Devices] spectrophotometer plate reader. […]

Cn1cnc(-c2cc([C@@]3(C)CCNC3=O)ccc2Nc2ccc(C(F)(F)F)cc2)c1 (single isomer, unassigned) [Compound 5, 3-methyl-3-(3-(1-methyl-1H-imidazol-4-yl)-4-((4-(trifluoromethyl)phenyl)amino)phenyl)pyrrolidin-2-one]
IC50: > 1000 nM
